In US5968817A, “DNA encoding serotonin receptors” (priority 1993, dated 1999):
Like-named read-outs stand apart in the source and are kept apart here.

Assays:
[1] = target: T1, REC20 serotonin receptor (5-HT6) (Rattus norvegicus, UniProt P32305); experiment: [125I]-LSD competition binding to membranes of CosM6 cells expressing REC20
T1 construct: encodes a putative protein of 435 amino acids; expressed in transfected cells; host or cells: CosM6 (subclone of COS-7), transient, vector pCMV4

[2] = target: T2, MR77 serotonin receptor (5-HT1E-Like) (Rattus norvegicus, UniProt P30940); experiment: [125I]-LSD competition binding to membranes of CosM6 cells expressing MR77
T2 construct: expressed in transfected cells; host or cells: CosM6 (subclone of COS-7), transient, vector pCMV4
T2 sequence (P30940 1-366): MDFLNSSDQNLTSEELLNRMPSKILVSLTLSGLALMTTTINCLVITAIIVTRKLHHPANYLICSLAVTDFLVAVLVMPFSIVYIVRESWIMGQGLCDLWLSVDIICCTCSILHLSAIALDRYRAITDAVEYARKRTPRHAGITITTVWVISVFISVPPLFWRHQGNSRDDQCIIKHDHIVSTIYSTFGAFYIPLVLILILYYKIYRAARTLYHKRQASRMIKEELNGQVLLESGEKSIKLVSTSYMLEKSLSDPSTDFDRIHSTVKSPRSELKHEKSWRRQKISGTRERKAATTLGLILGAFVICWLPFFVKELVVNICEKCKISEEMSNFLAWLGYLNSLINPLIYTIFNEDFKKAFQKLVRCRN

[3] = target: T3, MR22 serotonin receptor (5-HT5β) (Rattus norvegicus, UniProt P35365); experiment: [125I]-LSD competition binding to membranes of CosM6 cells expressing MR22
T3 construct: contains an open reading frame (ORF) encoding 370 amino acids; expressed in transfected cells; host or cells: CosM6 (subclone of COS-7), transient, vector pCMV4
T3 sequence (P35365 whole entry S4C/P322A): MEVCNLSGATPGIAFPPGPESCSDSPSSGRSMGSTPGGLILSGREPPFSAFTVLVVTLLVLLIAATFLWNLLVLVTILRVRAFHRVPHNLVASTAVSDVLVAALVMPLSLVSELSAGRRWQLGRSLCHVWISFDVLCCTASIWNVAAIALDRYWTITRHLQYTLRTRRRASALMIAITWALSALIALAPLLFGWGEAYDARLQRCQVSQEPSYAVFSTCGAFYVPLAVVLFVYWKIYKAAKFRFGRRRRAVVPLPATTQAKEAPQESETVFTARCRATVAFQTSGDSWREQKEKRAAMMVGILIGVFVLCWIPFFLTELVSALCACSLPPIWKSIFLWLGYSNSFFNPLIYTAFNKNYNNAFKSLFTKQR

[4] = target: T4, REC17 serotonin receptor (5-HT5α) (Rattus norvegicus, UniProt P35364); experiment: [125I]-LSD competition binding to membranes of CosM6 cells expressing REC17
T4 construct: contains an ORF encoding 357 amino acids; expressed in transfected cells; host or cells: CosM6 (subclone of COS-7), transient, vector pCMV4
T4 sequence (P35364 whole entry): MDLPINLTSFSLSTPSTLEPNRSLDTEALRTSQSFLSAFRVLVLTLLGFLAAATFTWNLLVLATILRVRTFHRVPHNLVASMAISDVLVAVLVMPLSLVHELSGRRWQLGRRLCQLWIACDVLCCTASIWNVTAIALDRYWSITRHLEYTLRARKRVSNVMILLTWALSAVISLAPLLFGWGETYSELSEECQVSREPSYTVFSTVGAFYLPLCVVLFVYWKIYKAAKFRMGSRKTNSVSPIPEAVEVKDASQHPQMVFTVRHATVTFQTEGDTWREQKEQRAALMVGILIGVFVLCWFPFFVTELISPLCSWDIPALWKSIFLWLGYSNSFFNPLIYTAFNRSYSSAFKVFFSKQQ

[5] = tested on: suprachiasmatic nucleus (SCN) neuronal activity; experiment: Effects of serotonergic agents on circadian rhythm of neuronal activity in suprachiasmatic nucleus slices; conditions: for effect of antagonist on the 8-OH-DPAT-dependent phase shift: antagonist 15 min before, during and 15 min after 1 hour 8-OH-DPAT
Method: This was followed by the normal perfusion medium. Horizontal bars: time of lights-off in donor colony; vertical bars: time of treatment; dotted line: mean time of peak in untreated slices.
The effects of serotinergic agents on the neuronal activity as measured against circadian time in the suprachiasmatic nucleus (SCN) were measured. […] This was followed by the normal perfusion medium.

[6] = CosM6 membranes, 1 nM [125I]-LSD, 60 min 37° C., read-out: IC50 for competition with 125I-LSD, Rec20
[7] = CosM6 membranes, 1 nM [125I]-LSD, 60 min 37° C., read-out: IC50 for competition with 125I-LSD, MR77

T1 sequence (P32305 1-435): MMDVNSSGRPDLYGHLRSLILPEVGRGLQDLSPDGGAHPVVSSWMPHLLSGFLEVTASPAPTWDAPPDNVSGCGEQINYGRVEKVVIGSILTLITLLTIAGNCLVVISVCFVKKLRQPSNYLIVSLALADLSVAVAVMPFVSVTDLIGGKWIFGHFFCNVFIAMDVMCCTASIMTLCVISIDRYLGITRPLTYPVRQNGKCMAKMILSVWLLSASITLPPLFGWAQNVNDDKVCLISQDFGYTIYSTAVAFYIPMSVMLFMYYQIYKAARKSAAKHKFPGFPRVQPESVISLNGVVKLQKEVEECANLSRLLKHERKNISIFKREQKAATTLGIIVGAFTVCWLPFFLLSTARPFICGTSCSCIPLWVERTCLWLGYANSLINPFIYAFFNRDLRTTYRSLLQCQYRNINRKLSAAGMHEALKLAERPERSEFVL

| SMILES | IC50 [1, 6] [nM] | IC50 [2, 7] [nM] | IC50 [3] [nM] | IC50 [4] [nM] | sensitivity of MR22 to the ligand (in words) [3] | also measured |
| --- | --- | --- | --- | --- | --- | --- |
| CN1C[C@H](CNC(=O)OCc2ccccc2)C[C@@H]2c3cccc4c3c(cn4C)C[C@H]21 [Metergoline] | 17 | 535 | > 1000 | > 1000 |  |  |
| CC(C)NCC(O)COc1cccc2[nH]ccc12 (stereo not drawn) [Pindolol] | > 1000 |  |  |  |  | effect of antagonist on the 8-OH-DPAT-dependent phase shift [5]: has no effect |
| NCCc1c[nH]c2ccc(C(N)=O)cc12 [Ligand 5-CT, 5-carboxyamidotryptamine] | 0.8 | > 1000 | 285 | 20.4 | sensitive | sensitivity of radiolabeled LSD binding to REC20 to the ligand (in words) [1]: displace; sensitivity of radiolabeled LSD binding to MR77 to the ligand (in words) [2]: insenstive; sensitivity of REC17 to the ligand (in words) [4]: sensitive |
| CSc1ccc2c(c1)C(N1CCN(C)CC1)Cc1ccccc1S2 (stereo not drawn) [Methiothepin] |  | > 1000 |  | 45 | sensitive | sensitivity of REC17 to the ligand (in words) [4]: sensitive |
| CCCN(CCC)C1CCc2cccc(O)c2C1 (stereo not drawn) [Ligand 8-OH-DPAT] | 97 |  | > 1000 | > 1000 | insensitive | sensitivity of radiolabeled LSD binding to REC20 to the ligand (in words) [1]: displace; sensitivity of radiolabeled LSD binding to MR77 to the ligand (in words) [2]: insenstive; sensitivity of REC17 to the ligand (in words) [4]: insensitive; phase advance in the circadian rhythm of spontaneous neuronal activity in the SCN ([5]; slice bath treatment for 1 hour): 2 to 3 h |
| Cc1nc2sccn2c(=O)c1CCN1CCC(=C(c2ccc(F)cc2)c2ccc(F)cc2)CC1 [Ritanserin] | 60 |  |  |  |  | effect of antagonist on the 8-OH-DPAT-dependent phase shift [5]: blocks |
| NCCc1c[nH]c2ccc(O)cc12 [Ligand 5-HT, 5-hydroxytryptamine] |  | 70 |  | 380 |  |  |
| CNS(=O)(=O)Cc1ccc2[nH]cc(CCN(C)C)c2c1 [Sumatriptan] | > 1000 |  | > 1000 | > 1000 | insensitive | sensitivity of radiolabeled LSD binding to MR77 to the ligand (in words) [2]: sensitive; sensitivity of REC17 to the ligand (in words) [4]: insensitive |
| COC(=O)[C@@H]1[C@H]2C[C@H]3c4[nH]c5ccccc5c4CCN3C[C@@H]2CC[C@@H]1O [Yohimbine] |  | 570 |  |  |  |  |
| CCN(CC)C(=O)[C@@H]1C=C2c3cccc4[nH]c([125I])c(c34)C[C@H]2N(C)C1 [[^125 I]-LSD] |  |  |  |  |  | binding of [125I]-LSD to REC20 broken cell preparations (in words) ([1]; transfected CosM6 cells): saturable binding; binding of [125I]-LSD to MR77 broken cell preparations (in words) ([2]; transfected CosM6 cells): saturable binding; binding of [125I]-LSD to MR22 broken cell preparations (in words) ([3]; transfected CosM6 cells): saturable binding; binding of [125I]-LSD to REC17 broken cell preparations (in words) ([4]; transfected CosM6 cells): saturable binding |
| O=C(c1ccc(F)cc1)C1CCN(CCn2c(=O)[nH]c3ccccc3c2=O)CC1 [ketanserin] |  |  |  |  |  | sensitivity of radiolabeled LSD binding to REC20 to the ligand (in words) [1]: sensitive |
| CN1C[C@@H](NS(=O)(=O)N(C)C)C[C@@H]2c3cccc4c3c(cn4C)C[C@H]21 [Mesulergine] | 17 | > 1000 | > 1000 | > 1000 |  |  |
| CN1C[C@H](C(=O)N[C@]2(C)O[C@@]3(O)[C@@H]4CCCN4C(=O)[C@H](Cc4ccccc4)N3C2=O)C=C2c3cccc4[nH]cc(c34)C[C@H]21 [Ergotamine] |  |  | 22 |  | sensitive | IC50 [1]: 33 nM; IC50 [2]: 55 nM |
| CC[C@@H](CO)NC(=O)[C@@H]1C=C2c3cccc4c3c(cn4C)C[C@H]2N(C)C1 [Methysergide] |  |  | > 1000 | 310 |  | IC50 [1]: 32 nM; IC50 [2]: 14 nM |
